Among the data in US20210198277A1, “AMINE-SUBSTITUTED ARYL OR HETEROARYL COMPOUNDS” (Epizyme, Inc., priority 2016, published 2021) are IC50 values, retold here.

The target in this assay is T1, EHMT1 (Homo sapiens, UniProt Q9H9B1).
T1 sequence (Q9H9B1 1-1298): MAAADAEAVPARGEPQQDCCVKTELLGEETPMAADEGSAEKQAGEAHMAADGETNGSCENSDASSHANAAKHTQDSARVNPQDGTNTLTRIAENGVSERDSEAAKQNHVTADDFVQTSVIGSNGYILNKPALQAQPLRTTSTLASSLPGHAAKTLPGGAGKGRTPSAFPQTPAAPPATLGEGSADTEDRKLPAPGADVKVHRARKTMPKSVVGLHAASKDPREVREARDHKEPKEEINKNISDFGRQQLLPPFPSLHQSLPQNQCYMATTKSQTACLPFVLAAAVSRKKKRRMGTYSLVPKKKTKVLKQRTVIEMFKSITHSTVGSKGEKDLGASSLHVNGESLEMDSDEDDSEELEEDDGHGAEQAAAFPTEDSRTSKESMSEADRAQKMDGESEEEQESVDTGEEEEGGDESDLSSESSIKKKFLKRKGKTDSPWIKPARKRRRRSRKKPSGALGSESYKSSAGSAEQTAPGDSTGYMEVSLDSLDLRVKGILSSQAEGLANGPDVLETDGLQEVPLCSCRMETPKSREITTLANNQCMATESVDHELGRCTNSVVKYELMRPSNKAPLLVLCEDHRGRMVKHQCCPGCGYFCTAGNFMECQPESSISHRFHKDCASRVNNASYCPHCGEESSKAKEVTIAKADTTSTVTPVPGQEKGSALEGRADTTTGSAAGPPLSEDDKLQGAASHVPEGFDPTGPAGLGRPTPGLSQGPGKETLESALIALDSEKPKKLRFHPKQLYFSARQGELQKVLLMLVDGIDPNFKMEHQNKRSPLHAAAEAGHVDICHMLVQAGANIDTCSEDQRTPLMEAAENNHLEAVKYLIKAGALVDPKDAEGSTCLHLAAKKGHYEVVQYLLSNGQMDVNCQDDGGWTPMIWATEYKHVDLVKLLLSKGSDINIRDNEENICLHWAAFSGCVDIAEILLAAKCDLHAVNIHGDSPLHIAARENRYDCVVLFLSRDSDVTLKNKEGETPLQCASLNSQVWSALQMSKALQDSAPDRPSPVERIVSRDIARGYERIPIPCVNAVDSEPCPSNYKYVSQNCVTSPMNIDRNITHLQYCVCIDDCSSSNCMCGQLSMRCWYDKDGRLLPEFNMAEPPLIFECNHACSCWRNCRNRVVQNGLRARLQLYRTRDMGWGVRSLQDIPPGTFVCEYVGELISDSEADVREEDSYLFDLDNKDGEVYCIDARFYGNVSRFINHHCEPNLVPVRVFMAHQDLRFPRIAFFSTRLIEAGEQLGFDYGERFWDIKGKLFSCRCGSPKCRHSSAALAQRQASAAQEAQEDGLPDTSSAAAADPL
In words: EHMT1 enzyme assay on peptide substrate (EHMT1 PEP). The following applies: read-out: EHMT1 PEP (IC50 μM). It is filed as biochemical.

The structures appear in SMILES notation. Where two headings read alike, the source gives them in different places. Bounds are passed on as bounds.

`CNc1ccnc(Nc2ccc(OC)c(OC[C@H](O)CN3CCCC3)c2)n1` (single isomer, unassigned) [Compound 376]: the IC50 (commonly the concentration that inhibits the measured activity by half) (Table III) was in the range of 1 to 10 µM. Still for that read-out and setting: for `CNc1ccnc(Nc2ccc(OC)c(OC[C@@H](O)CN3CCCC3)c2)n1` (single isomer, unassigned) [Compound 377] the value was more than 10 µM. Turning to `CNc1ccnc(Nc2ccc(OC)c(OCC3CCN(C)C3)c2)n1` (single isomer, unassigned) [Compound 415], the IC50 (Table III) fell in the range of 0.1 to 1 µM. On the same count and under the same terms, to `CNc1ccnc(Nc2ccc(OC)c(OCC3CCN(C)C3)c2)n1` (single isomer, unassigned) [Compound 416] belongs less than 0.1 µM. Still for that read-out and setting: for `CNc1cc(C)nc(Nc2ccc(OC)c(OCC3CCN(C)C3)c2)n1` (single isomer, unassigned) [Compound 417] the value was 0.1 to 1 µM. For `CNc1cc(C)nc(Nc2ccc(OC)c(OCC3CCN(C)C3)c2)n1` (single isomer, unassigned) [Compound 418], under “Table III”, the IC50 was less than 0.1 µM.

As for `CNc1ccnc(Nc2ccc(OC)c(OCCCN3CCCC3)c2)n1` [Compound 1, N^2-(4-methoxy-3-(3-(pyrrolidin-1-yl)propoxy)phenyl)-N^4-methylpyrimidine-2,4-diamine], for the setting “Table II”, the IC50 is less than 0.1 µM. `COc1ccc(Nc2nccc(NCC3CCN(CC(F)F)CC3)n2)cc1OCCCN1CCCC1` [Compound 2, N^4-((1-(2,2-difluoroethyl)piperidin-4-yl)methyl)-N^2-(4-methoxy-3-(3-(pyrrolidin-1-yl)propoxy)phenyl)pyrimidine-2,4-diamine]: the IC50 (Table II) was less than 0.1 µM. As for `COc1ccc(Nc2nccc(NCC3CCOCC3)n2)cc1OCCCN1CCCC1` [Compound 3, N^2-(4-methoxy-3-(3-(pyrrolidin-1-yl)propoxy)phenyl)-N^4-((tetrahydro-2H-pyran-4-yl)methyl)pyrimidine-2,4-diamine], where the note is “Table II”, the IC50 is less than 0.1 µM. Regarding `COc1ccc(Nc2nccc(NCC3CCN(CC(F)(F)F)CC3)n2)cc1OCCCN1CCCC1` [Compound 4, N^2-(4-methoxy-3-(3-(pyrrolidin-1-yl)propoxy)phenyl)-N^4-((1-(2,2,2-trifluoroethyl)piperidin-4-yl)methyl)pyrimidine-2,4-diamine], for the setting “Table II”, the IC50 lay in the range of 0.1 to 1 µM. `COc1ccc(Nc2nccc(NC3CCOCC3)n2)cc1OCCCN1CCCC1` [Compound 5, N^2-(4-methoxy-3-(3-(pyrrolidin-1-yl)propoxy)phenyl)-N^4-(tetrahydro-2H-pyran-4-yl)pyrimidine-2,4-diamine]: the IC50 (Table II) is 0.1 to 1 µM. In the case of `COc1ccc(Nc2nccc(NCC(=O)N3CCOCC3)n2)cc1OCCCN1CCCC1` [Compound 51], the IC50 (Table II) lay in the range of 0.1 to 1 µM. Turning to `COc1ccc(Nc2nccc(NCC(=O)N(C)c3ccccc3)n2)cc1OCCCN1CCCC1` [Compound 52], the IC50 (Table II) was in the range of 1 to 10 µM. With `COc1ccc(Nc2nccc(N3Cc4cn[nH]c4C3)n2)cc1OCCCN1CCCC1` [Compound 53], the concentration for half-maximal inhibition (IC50) (Table II) fell in the range of 1 to 10 µM. For `COc1ccc(Nc2nccc(NC3CCN(C(C)=O)CC3)n2)cc1OCCCN1CCCC1` [Compound 54], where the note is “Table II”, the IC50 was 0.1 to 1 µM. Regarding `COc1ccc(Nc2ncc(C)c(NCC3CCN(C(C)=O)CC3)n2)cc1OCCCN1CCCC1` [Compound 55], the IC50 (Table II) lay in the range of 0.1 to 1 µM. Same read-out and setting: for `COc1ccc(Nc2nccc(N(C)Cc3ccncc3)n2)cc1OCCCN1CCCC1` [Compound 56] the value was 1 to 10 µM; for `COc1ccc(Nc2nccc(NCC3CCN(C(C)=O)CC3)n2)cc1COCCN1CC(F)C1` [Compound 57], 1 to 10 µM; for `c1cc(Nc2nccc(NCC3CCNCC3)n2)cc(OCCCN2CCCC2)c1` [Compound 88], 0.1 to 1 µM.

Consider `COc1ccc(Nc2nccc(NCC3CCNCC3)n2)cc1OCCCN1CCCC1` [Compound 90], for which, for the setting “Table II”, the IC50 is less than 0.1 µM. For `CNc1cc(OC)nc(Nc2ccc(OC)c(OCCCN3CCCC3)c2)n1` [Compound 261, 6-methoxy-N^2-(4-methoxy-3-(3-(pyrrolidin-1-yl)propoxy)phenyl)-N^4-methylpyrimidine-2,4-diamine], the IC50 (Table III) was more than 10 µM. As to `CNc1ccnc(Nc2ccc3c(c2)C(=O)N(CCN2CCCC2)CC3)n1` [Compound 264, 7-((4-(methylamino)pyrimidin-2-yl)amino)-2-(2-(pyrrolidin-1-yl)ethyl)-3,4-dihydroisoquinolin-1(2H)-one], the IC50 (Table III) was more than 10 µM. For the molecule `COc1ccc(Nc2cccc3[nH]ccc23)cc1OCCCN1CCCC1` [Compound 265, N-(4-methoxy-3-(3-(pyrrolidin-1-yl)propoxy)phenyl)-1H-indol-4-amine], the IC50 (Table III) was more than 10 µM. Same read-out and setting: to `COc1ccc(Nc2nccc3[nH]ccc23)cc1OCCCN1CCCC1` [Compound 266, N-(4-methoxy-3-(3-(pyrrolidin-1-yl)propoxy)phenyl)-1H-pyrrolo[3,2-c]pyridin-4-amine] belongs 1 to 10 µM; to `CNc1nccc(Nc2ccc(OC)c(OCCCN3CCCC3)c2)n1` [Compound 355], less than 0.1 µM; to `CNc1cc(C)nc(Nc2ccc(F)c(OCCCN3CCCC3)c2)n1` [Compound 356], more than 10 µM. In the case of `CNc1nc(Nc2ccc(OC)c(OCCCN3CCCC3)c2)ncc1C#N` [Compound 357], the 50% inhibitory concentration (IC50) (Table III) is more than 10 µM. Regarding `CNc1nc(Nc2ccc(OC)c(OCCCN3CCCC3)c2)ncc1C(F)(F)F` [Compound 358], under “Table III”, the IC50 is more than 10 µM. Turning to `CNc1ncc(C(F)(F)F)c(Nc2ccc(OC)c(OCCCN3CCCC3)c2)n1` [Compound 359], for the setting “Table III”, the half-inhibitory concentration (IC50) is more than 10 µM. For the molecule `CNc1nc(Nc2ccc(OC)c(OCCCN3CCCC3)c2)nc(C)c1F` [Compound 360], the IC50 (Table III) was 0.1 to 1 µM. As to `CNc1ccnc(Nc2ccc(OC)c(OCCN3CCOCC3)c2)n1` [Compound 361], the IC50 (Table III) was 1 to 10 µM. `CNc1cc(C(F)(F)F)nc(Nc2ccc(OC)c(OCCCN3CCCC3)c2)n1` [Compound 362]: the half-inhibitory concentration (IC50) (Table III) is more than 10 µM. Turning to `CNc1ccnc(Nc2ccc3c(c2)N(C(=O)CCN(C)C)CC3)n1` [Compound 363], the IC50 (Table III) is more than 10 µM. Consider `CCc1cc(NC)nc(Nc2ccc(OC)c(OCCCN3CCCC3)c2)n1` [Compound 364], for which the IC50 (Table III) is less than 0.1 µM.

With `COc1ccc(Nc2nccc(CNC3CCOCC3)n2)cc1OCCCNc1ccccc1` [Compound 365], the IC50 (Table III) was more than 10 µM. `COc1ccc(Nc2cnnc(NCC3CCN(C(C)=O)CC3)c2)cc1OCCCN1CCCC1` [Compound 366]: the IC50 (Table III) was 1 to 10 µM. On to `COc1ccc(Nc2nccc(NCC3CCOCC3)n2)cc1OC1CC2(C1)CN(C)C2` [Compound 367], for which the concentration for half-maximal inhibition (IC50) (Table III) is more than 10 µM. For the molecule `CNc1ccnc(Nc2ccc(F)c(OCCCN3CCCC3)c2)n1` [Compound 368], under “Table III”, the IC50 is more than 10 µM. Take `COc1ccc(Nc2nccc(N)n2)cc1OCCCN1CCCC1` [Compound 369]: the IC50 (Table III) was in the range of 0.1 to 1 µM. In the case of `CNc1cnnc(Nc2ccc(OC)c(OCCCN3CCCC3)c2)c1` [Compound 370], under “Table III”, the IC50 lay in the range of 0.1 to 1 µM. As to `CNc1cncc(Nc2ccc(OC)c(OCCCN3CCCC3)c2)n1` [Compound 371], where the note is “Table III”, the IC50 fell in the range of 1 to 10 µM. Regarding `CNc1cc(Nc2cc(OCCCN3CCCC3)c(OC)cn2)ccn1` [Compound 372], for the setting “Table III”, the IC50 was less than 0.1 µM. In the case of `COc1ccc(Nc2nccc3[nH]ncc23)cc1OCCCN1CCCC1` [Compound 373], the IC50 (Table III) was more than 10 µM.

For `COc1ccc(Nc2ccnc3[nH]ccc23)cc1OCCCN1CCCC1` [Compound 374], the IC50 (Table III) fell in the range of 1 to 10 µM. Turning to `CC(C)Nc1ccnc(Nc2cccc(OCCCN3CC[C@@H](F)C3)c2)n1` [Compound 375], the IC50 (Table III) was more than 10 µM.
